Where “and” joins values, the source holds several entries; their conditions need not be identical. Identical values can stand only once. Toxic doses and inconclusive results are not listed.
Tested on: P388 leukemia ip, CD2F1 mice, survival T/C
Assay: NCI In Vivo Anticancer Drug Screen. Data for tumor model P388 Leukemia (intraperitoneal) in CD2F1 (CDF1) mice
Details: endpoint: median survival time, higher = longer survival
Procedure, shortened: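 Mice carrying the transplanted tumor received test compound or vehicle. Survival was recorded in each group, and the value is the treated-group measurement divided by that of the vehicle-treated control group.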

[1] = dose: 6.25 mg/kg/injection, schedule: Q04DX003 (ip), vehicle: saline
[2] = dose: 12.5 mg/kg/injection, schedule: Q04DX003 (ip), vehicle: saline
[3] = dose: 50.0 mg/kg/injection, schedule: Q01DX005 (ip), vehicle: Klucel (hydroxypropylcellulose) (HPC)
[4] = dose: 50.0 mg/kg/injection, schedule: Q01DX009 (ip), vehicle: saline with Tween-80
[5] = dose: 100.0 mg/kg/injection, schedule: Q01DX009 (ip), vehicle: saline with Tween-80
[6] = dose: 200.0 mg/kg/injection, schedule: Q01DX009 (ip), vehicle: saline with Tween-80
[7] = dose: 50.0 mg/kg/injection, schedule: Q01DX009 (ip), vehicle: Klucel (hydroxypropylcellulose) (HPC)
[8] = dose: 100.0 mg/kg/injection, schedule: Q01DX009 (ip), vehicle: Klucel (hydroxypropylcellulose) (HPC)
[9] = dose: 200.0 mg/kg/injection, schedule: Q01DX009 (ip), vehicle: Klucel (hydroxypropylcellulose) (HPC)

In the case of `Cc1cccc(NC(=O)N(CCCl)N=O)c1`, the T/C (dose: 0.38 mg/kg/injection, schedule: Q04DX003 (ip), vehicle: saline with Tween-80) is reported as 186 % of control, the T/C (dose: 0.75 mg/kg/injection, schedule: Q04DX003 (ip), vehicle: saline with Tween-80) is reported as 218 % of control and the T/C (dose: 1.5 mg/kg/injection, schedule: Q01DX009 (ip), vehicle: saline) is reported as 159 % of control. For the same molecule, the T/C (dose: 1.5 mg/kg/injection, schedule: Q04DX003 (ip), vehicle: saline with Tween-80) was 272 % of control, the T/C (dose: 3.0 mg/kg/injection, schedule: Q01DX009 (ip), vehicle: saline) was 206 % of control and the T/C (dose: 3.13 mg/kg/injection, schedule: Q01DX009 (ip), vehicle: saline with Tween-80) was 254 % of control. The T/C (dose: 3.13 mg/kg/injection, schedule: Q04DX003 (ip), vehicle: saline) was 190 % of control, the T/C (dose: 6.25 mg/kg/injection, schedule: Q01DX009 (ip), vehicle: saline with Tween-80) was 95 % of control and the T/C (dose: 6.25 mg/kg/injection, schedule: Q04DX003 (ip), vehicle: saline with Tween-80) was 200 % of control. The T/C [1] was 209 % of control, the T/C (dose: 8.25 mg/kg/injection, schedule: Q04DX003 (ip), vehicle: saline with Tween-80) was 276 % of control and the T/C (dose: 12.5 mg/kg/injection, schedule: Q04DX003 (ip), vehicle: saline with Tween-80) was 272 % of control and 285 % of control. The T/C [2] was 118 % of control.

For `Cc1ccnc(Sc2ccc([N+](=O)[O-])cc2[N+](=O)[O-])n1`, the T/C (dose: 50.0 mg/kg/injection, schedule: Q01DX009 (ip), vehicle: saline) was 102 % of control, the T/C (dose: 100.0 mg/kg/injection, schedule: Q01DX009 (ip), vehicle: saline) was 104 % of control and the T/C (dose: 200.0 mg/kg/injection, schedule: Q01DX009 (ip), vehicle: saline) was 100 % of control.

`O=C(O)c1c2c(nc3ccccc13)CCC(C(=O)O)C2` (stereo unspecified) was tested, and the T/C (dose: 60.0 mg/kg/injection, schedule: Q01DX005 (ip), vehicle: saline with Tween-80) was 96 % of control, the T/C (dose: 120.0 mg/kg/injection, schedule: Q01DX005 (ip), vehicle: saline with Tween-80) was 102 % of control and the T/C (dose: 240.0 mg/kg/injection, schedule: Q01DX005 (ip), vehicle: saline with Tween-80) was 96 % of control.

With `O=C1CC2OCCC3CN4CCC56c7ccccc7N1C5C2C3CC46` (stereo unspecified) the T/C (dose: 7.5 mg/kg/injection, schedule: Q01DX005 (ip), vehicle: Klucel (hydroxypropylcellulose) (HPC)) was 101 % of control, the T/C (dose: 15.0 mg/kg/injection, schedule: Q01DX005 (ip), vehicle: Klucel (hydroxypropylcellulose) (HPC)) was 98 % of control and the T/C (dose: 30.0 mg/kg/injection, schedule: Q01DX005 (ip), vehicle: Klucel (hydroxypropylcellulose) (HPC)) was 98 % of control.

In the case of `N#CN=[N+]([O-])c1ccc(Cl)cc1`, the T/C (dose: 3.12 mg/kg/injection, schedule: Q01DX009 (ip), vehicle: Klucel (hydroxypropylcellulose) (HPC)) is reported as 107 % of control, the T/C (dose: 6.25 mg/kg/injection, schedule: Q01DX009 (ip), vehicle: Klucel (hydroxypropylcellulose) (HPC)) is reported as 114 % of control and the T/C (dose: 6.25 mg/kg/injection, schedule: Q04DX003 (ip), vehicle: Klucel (hydroxypropylcellulose) (HPC)) is reported as 97 % of control. The T/C (dose: 12.5 mg/kg/injection, schedule: Q01DX009 (ip), vehicle: Klucel (hydroxypropylcellulose) (HPC)) was 98 % of control, the T/C (dose: 12.5 mg/kg/injection, schedule: Q04DX003 (ip), vehicle: Klucel (hydroxypropylcellulose) (HPC)) was 95 % of control and the T/C (dose: 25.0 mg/kg/injection, schedule: Q04DX003 (ip), vehicle: Klucel (hydroxypropylcellulose) (HPC)) was 98 % of control.

In the case of `COCC#CCN(C)C`, the T/C (dose: 60.0 mg/kg/injection, schedule: Q01DX005 (ip), vehicle: saline) is reported as 95 % of control, the T/C (dose: 120.0 mg/kg/injection, schedule: Q01DX005 (ip), vehicle: saline) is reported as 99 % of control and the T/C (dose: 240.0 mg/kg/injection, schedule: Q01DX005 (ip), vehicle: saline) is reported as 95 % of control.

`COC(=O)c1[c]([Sn]([CH3])([CH3])[CH3])n[n]([Sn]([CH3])([CH3])[CH3])c1C(=O)OC` was tested, and the T/C [1] was 98 % of control and the T/C [2] was 98 % of control.

`COC(=O)Nc1c2c(nc3ccccc13)-c1ccccc1C(C)(C)C2` was tested, and the T/C [3] was 103 % of control, the T/C (dose: 100.0 mg/kg/injection, schedule: Q01DX005 (ip), vehicle: Klucel (hydroxypropylcellulose) (HPC)) was 101 % of control and the T/C (dose: 200.0 mg/kg/injection, schedule: Q01DX005 (ip), vehicle: Klucel (hydroxypropylcellulose) (HPC)) was 98 % of control.

In the case of `Clc1nc(Cl)nc(N2CCCc3ccccc32)n1`, the T/C [4] is reported as 89 % of control, the T/C [5] is reported as 96 % of control and the T/C [6] is reported as 93 % of control.

`Cc1cc(N=Nc2ccc(NC(=O)c3ccc(N)cc3)cc2C)ccc1N=Nc1ccc2c(O)c(N=Nc3ccc(S(=O)(=O)O)cc3)c(S(=O)(=O)O)cc2c1` was tested, and the T/C (dose: 12.5 mg/kg/injection, schedule: Q01DX005 (ip), vehicle: saline) was 100 % of control, the T/C (dose: 25.0 mg/kg/injection, schedule: Q01DX005 (ip), vehicle: saline) was 105 % of control and the T/C (dose: 50.0 mg/kg/injection, schedule: Q01DX005 (ip), vehicle: saline) was 105 % of control and 108 % of control. For the same molecule, the T/C (dose: 100.0 mg/kg/injection, schedule: Q01DX005 (ip), vehicle: saline) was 103 % of control.

With `NC(=O)c1ccc(NC(=O)/C=C/C(=O)Nc2ccc(C(N)=O)cn2)nc1` the T/C (dose: 1.65 mg/kg/injection, schedule: Q01DX009 (ip), vehicle: saline with Tween-80) was 109 % of control, the T/C (dose: 2.5 mg/kg/injection, schedule: Q01DX009 (ip), vehicle: saline with Tween-80) was 118 % of control and the T/C (dose: 2.5 mg/kg/injection, schedule: Q04DX003 (ip), vehicle: saline with Tween-80) was 100 % of control. For the same molecule, the T/C (dose: 3.75 mg/kg/injection, schedule: Q01DX009 (ip), vehicle: saline with Tween-80) was 104 % of control, the T/C (dose: 5.0 mg/kg/injection, schedule: Q04DX003 (ip), vehicle: saline with Tween-80) was 100 % of control and the T/C (dose: 10.0 mg/kg/injection, schedule: Q04DX003 (ip), vehicle: saline with Tween-80) was 100 % of control and 118 % of control. For the same molecule, the T/C (dose: 20.0 mg/kg/injection, schedule: Q04DX003 (ip), vehicle: saline with Tween-80) was 100 % of control, the T/C (dose: 625.0 micrograms/kg/injection, schedule: Q01DX009 (ip), vehicle: saline with Tween-80) was 104 % of control and the T/C (dose: 1250.0 micrograms/kg/injection, schedule: Q01DX009 (ip), vehicle: saline with Tween-80) was 122 % of control.

With `Cc1ccc2[nH]c(=O)c(=O)[nH]c2c1` the T/C (dose: 25.0 mg/kg/injection, schedule: Q01DX009 (ip), vehicle: saline with Tween-80) was 119 % of control, the T/C [4] was 103 % of control and the T/C [5] was 105 % of control. The T/C [6] was 104 % of control.

`O=C(Nc1ncc([N+](=O)[O-])s1)c1cc(Cl)cc(Cl)c1` was tested, and the T/C (dose: 12.5 mg/kg/injection, schedule: Q01DX005 (ip), vehicle: Klucel (hydroxypropylcellulose) (HPC)) was 104 % of control, the T/C (dose: 25.0 mg/kg/injection, schedule: Q01DX005 (ip), vehicle: Klucel (hydroxypropylcellulose) (HPC)) was 100 % of control and the T/C [3] was 100 % of control and 101 % of control.

`c1ccc2c(c1)ccc1c2nnc2nnnn21` was tested, and the T/C [7] was 104 % of control, the T/C [8] was 105 % of control and the T/C [9] was 95 % of control.

For `O/N=C\c1ccccc1P(c1ccccc1)c1ccccc1/C=N\O`, the T/C (dose: 50.0 mg/kg/injection, schedule: Q01DX005 (ip), vehicle: saline with Tween-80) was 93 % of control, the T/C (dose: 100.0 mg/kg/injection, schedule: Q01DX005 (ip), vehicle: saline with Tween-80) was 92 % of control and the T/C (dose: 200.0 mg/kg/injection, schedule: Q01DX005 (ip), vehicle: saline with Tween-80) was 90 % of control.

For `Cc1ccc(C)c(NC(=O)Nc2ccc(C(=O)O)cc2)c1`, the T/C [7] was 105 % of control, the T/C [8] was 105 % of control and the T/C [9] was 102 % of control.

`CC(C)(C)N(O)c1ccc(P(=O)(c2ccccc2)c2ccccc2)cc1` was tested, and the T/C [4] was 99 % of control, the T/C [5] was 99 % of control and the T/C [6] was 99 % of control.

With `O=P(N1CCCCC1)(N1CC1)N1CC1` the T/C (dose: 5.0 mg/kg/injection, schedule: Q04DX003 (ip), vehicle: saline) was 108 % of control, the T/C (dose: 5.56 mg/kg/injection, schedule: Q01DX009 (ip), vehicle: saline) was 195 % of control and the T/C (dose: 6.25 mg/kg/injection, schedule: Q01DX009 (ip), vehicle: saline) was 163 % of control. For the same molecule, the T/C (dose: 10.0 mg/kg/injection, schedule: Q04DX003 (ip), vehicle: saline) was 120 % of control, the T/C (dose: 12.5 mg/kg/injection, schedule: Q01DX009 (ip), vehicle: saline) was 227 % of control and 86 % of control and the T/C (dose: 20.0 mg/kg/injection, schedule: Q04DX003 (ip), vehicle: saline) was 220 % of control. For the same molecule, the T/C (dose: 25.0 mg/kg/injection, schedule: Q01DX009 (ip), vehicle: saline) was 90 % of control.

`CCN(CC)CCN1C(=O)CN=C(c2ccccn2)c2cc(Cl)ccc21` was tested, and the T/C [4] was 100 % of control, the T/C [5] was 95 % of control and the T/C [6] was 100 % of control.

— PubChem BioAssay AID330 (DTP/NCI, 2004)
